Data on 62 compounds can be found in patent publication US9724351B2, “Compounds for the treatment of paramoxyvirus viral infections” (priority 2012, dated 2017).

The structures appear in SMILES notation. Bounds are passed on as bounds.

A short description of the data set: Cytotoxicity Determination. Format: cell-based. The conditions noted are these: human, HEp-2 cells, without addition of virus, CCK-8 readout, bins (Table 4: greater than 100 μM; Table 5: equal to or less than 100 μM and greater than 10 μM), read-out: 50% cytotoxicity concentration (CC50). Here is the method: In order to determine the compound cytotoxicity, in parallel, each of the compounds is applied to duplicate wells in a 384-well cell plate at serial final concentrations starting from 100 μM using ½ stepwise dilutions for 7 points without addition of virus. Incubate the cells at 37° C., 5% CO2 for 5 days. Add 6 μl CCK-8 into each well and incubate in a CO2 incubator at 37° C. for 3-4 hours. Read the plates to obtain the optical densities which are used to calculate 50% cytotoxicity concentration (CC50).
On to `COc1cc(C(=O)NCC(=O)c2cccc(-c3csc4c(F)cccc34)n2)ccc1OC1CCNCC1` [Compound 1231], for which the CC50 at 5 days was 10 to 100 µM. The same measure for `COc1ccc(C(=O)NCC(=O)Nc2nccc3ccccc23)cc1OC` [Compound 906]: > 100 µM; for `COc1ccc(C(=O)NCC(=O)N/N=C(\C)c2nc3ccccc3s2)cc1OC` [Compound 417]: 10 to 100 µM. Consider `COc1ccc(C(=O)NCC(=O)N/N=C/c2csc(-c3ccccc3)c2)cc1OC` [Compound 487], for which the CC50 at 5 days is 10 to 100 µM. Turning to `COc1ccc(C(=O)CCC(=O)c2cccc(-c3csc4c(F)cccc34)n2)cc1OC` [Compound 1339], the CC50 at 5 days is 10 to 100 µM. With `COc1ccc(C(=O)NCC(=O)N/N=C2\CCc3cc(OC)c(OC)cc32)cc1OC` [Compound 421], the CC50 at 5 days was > 100 µM. The same measure for `CCOc1ccc(C(=O)NCC(=O)N/N=C(\C)c2csc3cccnc23)cc1OC` [Compound 465]: 10 to 100 µM; for `COc1ccc(C(=O)NCC(=O)Nc2cc3ccccc3c(=O)[nH]2)cc1OC` [Compound 907]: > 100 µM.

Consider `Cc1ccc(/C=N/NC(=O)CNC(=O)c2ccccc2)o1` [Compound 119], for which the CC50 at 5 days fell in the range of 10 to 100 µM. As to `COc1ccc(C(=O)NCC(=O)c2nc(-c3csc4c(F)cccc34)co2)cc1OC` [Compound 3201], the CC50 at 5 days was in the range of 10 to 100 µM. The same measure for `COc1ccc(C(=O)NCC(=O)N/N=C(\C)c2csc3ccc(Br)cc23)cc1OC` [Compound 432]: 10 to 100 µM; for `COc1ccc(CNCC(=O)N/N=C/c2csc3ccccc23)cc1OC` [Compound 241]: 10 to 100 µM; for `COc1ccc(C(=O)NCCC(=O)N/N=C(/C)c2csc3ccccc23)cc1OC` [Compound 243]: > 100 µM. The same measure for `CCOc1ccc(C(=O)NCC(=O)Nc2cc3ccccc3n2C)cc1OC` [Compound 909]: > 100 µM. The same measure for `CCOc1ccc(C(=O)NCC(=O)Nc2nc3cc(C)ccc3n2CCOC)cc1OC` [Compound 916]: > 100 µM. For `COc1ccc(C(=O)NCC(=O)N/N=C(\C)c2csc3c2CCCC3)cc1OC` [Compound 428], the CC50 at 5 days is > 100 µM. The same measure for `COc1ccc(C(=O)NC(C)C(=O)c2nc(-c3csc4c(F)cccc34)ccc2O)cc1OC` (centres unmarked) [Compound 1304]: 10 to 100 µM; for `COc1ccc(C(=O)NCC(=O)N/N=C(\C)c2c(C)[nH]c3ccccc23)cc1OC` [Compound 416]: 10 to 100 µM. `COc1ccc2c(c1)/C(=N/NC(=O)CNC(=O)c1ccc(OC)c(OC)c1)CC2` [Compound 424]: the CC50 at 5 days was > 100 µM. Next, `COc1ccc(C(=O)NCC(=O)N/N=C(\C)c2csc(-c3ccccc3)c2)cc1OC` [Compound 429]: > 100 µM; `COc1ccc(C(=O)NCC(=O)Nc2ccc3c(-c4ccccc4)c[nH]c3c2)cc1OC` [Compound 4104]: > 100 µM; `COc1ccc(C(=O)NCC(=O)c2ncc(-c3csc4c(F)cccc34)n2C)cc1OC` [Compound 2204]: 10 to 100 µM. The same measure for `CCOc1ccc(C(=O)NCCNC(=O)N(CCOC)c2csc3c(F)cccc23)cc1OC` [Compound 1000]: > 100 µM; for `COc1ccc(C(=O)NCC(=O)N/N=C(\C)c2cnc3ccccc3c2)cc1OC` [Compound 435]: > 100 µM.

For the compound `CCOc1ccc(C(=O)NCC(=O)Nc2nc3ccccc3n2CCOC)cc1OC` [Compound 913], the CC50 at 5 days was > 100 µM. Next, `COc1ccc(C(=O)NCC(=O)N/N=C/c2csc3ccccc23)cc1` [Compound 101]: > 100 µM; `COc1ccc(C(=O)NCC(=O)NN=C2Cc3ccccc3C2)cc1OC` [Compound 420]: > 100 µM. `COc1cc(C(=O)NCC(=O)c2cccc(-c3csc4c(F)cccc34)n2)ccc1OCCN1CCOCC1` [Compound 1233]: the CC50 at 5 days lay within 10 to 100 µM. For the compound `COc1ccc(C(=O)NCC(=O)NNCCC(=O)c2csc3ccccc23)cc1OC` [Compound 904], the CC50 at 5 days was > 100 µM.

Turning to `COc1ccc(C(=O)NCC(=O)c2cc(=O)cc(-c3csc4c(F)cccc34)[nH]2)cc1OC` [Compound 1222], the CC50 at 5 days is > 100 µM. Next, `COc1ccc(C(=O)NN(C)C(=O)c2cccc(-c3csc4c(F)cccc34)n2)cc1OC` [Compound 3102]: 10 to 100 µM; `CCOc1ccc(C(=O)NCC(=O)NNC(=O)c2csc3cccnc23)cc1OC` [Compound 902]: 10 to 100 µM.

With `COc1ccc(C(=O)NCC(=O)c2cncc(-c3csc4c(F)cccc34)n2)cc1OC` [Compound 1219], the CC50 at 5 days was > 100 µM. For the compound `COc1ccc(C(=O)NCC(=O)N/N=C(\C)c2c(Br)sc3ccccc23)cc1OC` [Compound 437], the CC50 at 5 days is 10 to 100 µM. As for `COc1cc(C(=O)CNC(=O)c2ccc(OC)c(OC)c2)nc(-c2csc3c(F)cccc23)n1` [Compound 1201], the CC50 at 5 days was > 100 µM. The same measure for `COc1ccc(C(=O)NCC(=O)NN=C(c2cccs2)c2cccs2)cc1OC` [Compound 431]: > 100 µM. Next, `COc1ccc(C(=O)NCCc2ccnc(-c3csc4c(F)cccc34)n2)cc1OC` [Compound 1207]: > 100 µM; `COc1ccc(C(=O)NCC(=O)N/N=C(\C)c2cccc3ccccc23)cc1OC` [Compound 433]: 10 to 100 µM. For the compound `CCOc1ccc(C(=O)NCC(=O)Nc2nc3cc(C(=O)OC)ccc3n2CCOC)cc1OC` [Compound 912], the CC50 at 5 days lay within 10 to 100 µM. Next, `CC(C)Oc1ccc(C(=O)NCC(=O)N/N=C/c2csc3ccccc23)cc1` [Compound 236]: 10 to 100 µM. The same measure for `COc1cc(C(=O)NCC(=O)c2ccc(OC)c(-c3ccc(F)c(Cl)c3)n2)ccc1OCCO` [Compound 1603]: > 100 µM; for `CCn1cc(-c2csc3c(F)cccc23)nc1C(=O)CNC(=O)c1ccc(OC)c(OC)c1` [Compound 1354]: 10 to 100 µM. The same measure for `COc1ccc(C(=O)NCC(=O)N/N=C(\C)c2cc(-c3ccccc3)sc2C)cc1OC` [Compound 419]: 10 to 100 µM. For `COc1ccc(C(=O)NCC(=O)c2coc(-c3csc4c(F)cccc34)n2)cc1OC` [Compound 3200], the CC50 at 5 days is > 100 µM. The same measure for `CCOc1ccc(C(=O)NCC(=O)NCC(=O)c2csc3c(F)cccc23)cc1OC` [Compound 910]: 10 to 100 µM. The same measure for `COc1ccc(C(=O)NCC(=O)c2cnc(-c3csc4c(F)cccc34)n2C)cc1OC` [Compound 2205]: > 100 µM. For the compound `COc1ccc(CC(=O)NCC(=O)N/N=C(/C)c2csc3ccccc23)cc1OC` [Compound 472], the CC50 at 5 days was in the range of 10 to 100 µM. Next, `COc1ccc(C(=O)NCC(=O)c2nc(-c3csc4c(F)cccc34)n[nH]2)cc1OC` [Compound 860]: 10 to 100 µM; `COc1cc(C(=O)NCC(=O)N/N=C(\C)c2csc3ccccc23)ccn1` [Compound 473]: > 100 µM; `CN(C)c1ccc(C(=O)NCC(=O)N/N=C/c2csc3ccccc23)cc1` [Compound 237]: 10 to 100 µM. The same measure for `COc1ccc(C(=O)NCc2nnc(-c3csc4ccccc34)o2)cc1OC` [Compound 4103]: > 100 µM.

On to `COc1ccc(C(=O)NCC(=O)N/N=C/c2cncc3ccccc23)cc1OC` [Compound 412], for which the CC50 at 5 days lay in the range of 10 to 100 µM.

Take `COc1ccc(C(=O)N(C)CC(=O)N/N=C(\C)c2csc3ccccc23)cc1OC` [Compound 242]: the CC50 at 5 days is > 100 µM. The same measure for `COc1ccc(C(=O)NCC(=O)N/C=C/c2csc3ccccc23)cc1OC` [Compound 4102]: 10 to 100 µM. Next, `COc1ccc(S(=O)(=O)NCC(=O)N/N=C(\C)c2csc3ccccc23)cc1OC` [Compound 240]: 10 to 100 µM; `COc1ccc(C(=O)NCC(=O)N/N=C2\CCc3ccccc32)cc1OC` [Compound 425]: > 100 µM. Next, `COc1ccc(C(=O)NCCc2nccc(-c3csc4c(F)cccc34)n2)cc1OC` [Compound 1208]: > 100 µM. Regarding `COc1ccc(C(=O)Nc2cn(C)c3ccc(-c4csc5c(F)cccc45)nc3c2=O)cc1OC` [Compound 2901], the CC50 at 5 days is > 100 µM. The same measure for `CCOc1ccc(C(=O)NCC(=O)NCCc2csc3c(F)cccc23)cc1OC` [Compound 908]: > 100 µM. Next, `COc1cc(C(=O)NCC(=O)c2cccc(-c3csc4c(F)cccc34)n2)ccc1OC1CCN(C)CC1` [Compound 1234]: 10 to 100 µM; `CCOc1ccc(C(=O)NCC(=O)Nc2nc3cc(F)ccc3n2CCOC)cc1OC` [Compound 914]: > 100 µM; `CCOc1ccc(C(=O)NCC(=O)Nc2nc3ccc(F)c(F)c3n2CCOC)cc1OC` [Compound 915]: > 100 µM.
